This assay has as its system CD2F1 mice, L1210 leukemia sc, survival T/C. In words: NCI In Vivo Anticancer Drug Screen. Data for tumor model L1210 Leukemia (subcutaneous) in CD2F1 (CDF1) mice. The conditions noted are these: endpoint: median survival time, higher = longer survival. In a few lines:
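T/C ratio: treated-group survival or tumor size over vehicle-control group measurement, in mice carrying transplanted tumors.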

Each structure is given as a SMILES string. “And” between values parts separate entries of the source, which are not always exact repeats. Equal values may be shown once. Inconclusive results and toxic doses are left out.

Consider 7 compounds from PubChem BioAssay AID258 (DTP/NCI, 2004).

Regarding `CC[C@]1(O)C[C@H]2CN(CCc3c([nH]c4ccccc34)[C@@](C(=O)OC)(c3cc4c(cc3OC)N(C=O)[C@H]3[C@@](O)(C(=O)OC)[C@H](OC(C)=O)[C@]5(CC)C=CCN6CC[C@]43[C@@H]65)C2)C1`, the T/C is 98 % of control (dose: 0.15 mg/kg/injection, schedule: Q01DX009 (ip), vehicle: saline); 101 % of control (dose: 0.2 mg/kg/injection, schedule: Q01DX009 (ip), vehicle: saline); 98 % of control (dose: 0.25 mg/kg/injection, schedule: Q01DX009 (ip), vehicle: saline); 113 % of control (dose: 0.25 mg/kg/injection, schedule: Q01DX009 (sc), vehicle: saline); 108 % of control (dose: 0.5 mg/kg/injection, schedule: Q01DX009 (sc), vehicle: saline); 104 % of control and 92 % of control (dose: 0.75 mg/kg/injection, schedule: Q01DX009 (sc), vehicle: saline). The T/C by setting is: (dose: 1.0 mg/kg/injection, schedule: Q01DX009 (sc), vehicle: saline) 102 % of control; (dose: 1.25 mg/kg/injection, schedule: Q01DX001 (iv), vehicle: water) 120 % of control; (dose: 1.25 mg/kg/injection, schedule: Q01DX001 (sc), vehicle: water) 120 % of control; (dose: 1.25 mg/kg/injection, schedule: Q01DX009 (sc), vehicle: saline) 111 % of control; (dose: 1.5 mg/kg/injection, schedule: Q01DX009 (sc), vehicle: saline) 107 % of control; (dose: 2.5 mg/kg/injection, schedule: Q01DX001 (iv), vehicle: water) 120 % of control. The T/C runs as follows: (dose: 63.0 micrograms/kg/injection, schedule: Q01DX009 (ip), vehicle: saline) 101 % of control; (dose: 63.0 micrograms/kg/injection, schedule: Q01DX009 (sc), vehicle: saline) 103 % of control; (dose: 125.0 micrograms/kg/injection, schedule: Q01DX009 (ip), vehicle: saline) 98 % of control; (dose: 125.0 micrograms/kg/injection, schedule: Q01DX009 (sc), vehicle: saline) 103 % of control; (dose: 250.0 micrograms/kg/injection, schedule: Q01DX009 (ip), vehicle: saline) 96 % of control; (dose: 250.0 micrograms/kg/injection, schedule: Q01DX009 (sc), vehicle: saline) 107 % of control. Further, the T/C (dose: 500.0 micrograms/kg/injection, schedule: Q01DX009 (ip), vehicle: saline) was 96 % of control and the T/C (dose: 500.0 micrograms/kg/injection, schedule: Q01DX009 (sc), vehicle: saline) was 114 % of control.
As to `CCOC(=O)C(CC(C)C)NC(=O)C(Cc1ccc(N(CCCl)CCCl)cc1)NC(C)=O` (stereo not given), the T/C runs as follows: (dose: 1.0 mg/kg/injection, schedule: Q01DX009 (sc), vehicle: Klucel (hydroxypropylcellulose) (HPC)) 102 % of control and 103 % of control; (dose: 2.0 mg/kg/injection, schedule: Q01DX009 (sc), vehicle: Klucel (hydroxypropylcellulose) (HPC)) 103 % of control and 98 % of control; (dose: 4.0 mg/kg/injection, schedule: Q01DX009 (sc), vehicle: Klucel (hydroxypropylcellulose) (HPC)) 104 % of control and 105 % of control; (dose: 8.0 mg/kg/injection, schedule: Q01DX009 (sc), vehicle: Klucel (hydroxypropylcellulose) (HPC)) 107 % of control and 98 % of control; (dose: 16.0 mg/kg/injection, schedule: Q01DX009 (sc), vehicle: Klucel (hydroxypropylcellulose) (HPC)) 103 % of control and 109 % of control; (dose: 28.5 mg/kg/injection, schedule: Q01DX009 (sc), vehicle: Klucel (hydroxypropylcellulose) (HPC)) 110 % of control. Further, the T/C runs as follows: (dose: 32.0 mg/kg/injection, schedule: Q01DX009 (sc), vehicle: Klucel (hydroxypropylcellulose) (HPC)) 100 % of control and 112 % of control; (dose: 42.7 mg/kg/injection, schedule: Q01DX009 (sc), vehicle: Klucel (hydroxypropylcellulose) (HPC)) 121 % of control; (dose: 64.0 mg/kg/injection, schedule: Q01DX009 (sc), vehicle: Klucel (hydroxypropylcellulose) (HPC)) 118 % of control and 124 % of control; (dose: 113.8 mg/kg/injection, schedule: Q01DX009 (sc), vehicle: Klucel (hydroxypropylcellulose) (HPC)) 113 % of control; (dose: 128.0 mg/kg/injection, schedule: Q01DX009 (sc), vehicle: Klucel (hydroxypropylcellulose) (HPC)) 113 % of control and 122 % of control; (dose: 170.7 mg/kg/injection, schedule: Q01DX009 (sc), vehicle: Klucel (hydroxypropylcellulose) (HPC)) 120 % of control. For the same compound, under “dose: 384.0 mg/kg/injection, schedule: Q01DX009 (sc), vehicle: Klucel (hydroxypropylcellulose) (HPC)”, the T/C was 158 % of control.
Turning to `Clc1ccc(CSc2ncnc3nc[nH]c23)cc1`, the T/C reads like this: (dose: 38.9 mg/kg/injection, schedule: Q01DX Z (sc), vehicle: methylcellulose (MC)) 100 % of control; (dose: 64.8 mg/kg/injection, schedule: Q01DX Z (sc), vehicle: methylcellulose (MC)) 100 % of control; (dose: 108.0 mg/kg/injection, schedule: Q01DX Z (sc), vehicle: methylcellulose (MC)) 100 % of control; (dose: 180.0 mg/kg/injection, schedule: Q01DX Z (sc), vehicle: methylcellulose (MC)) 100 % of control; (dose: 300.0 mg/kg/injection, schedule: Q01DX Z (sc), vehicle: methylcellulose (MC)) 100 % of control; (dose: 500.0 mg/kg/injection, schedule: Q01DX Z (sc), vehicle: methylcellulose (MC)) 104 % of control.
Take `CC/C(=C(/CC)c1ccc(O)cc1)c1ccc(O)cc1`: the T/C is, setting by setting: (dose: 12.5 mg/kg/injection, schedule: Q01DX009 (ip), vehicle: saline with Tween-80) 103 % of control; (dose: 12.5 mg/kg/injection, schedule: Q01DX009 (sc), vehicle: saline with Tween-80) 98 % of control; (dose: 25.0 mg/kg/injection, schedule: Q01DX009 (ip), vehicle: saline with Tween-80) 104 % of control; (dose: 25.0 mg/kg/injection, schedule: Q01DX009 (sc), vehicle: saline with Tween-80) 98 % of control and 100 % of control; (dose: 50.0 mg/kg/injection, schedule: Q01DX009 (ip), vehicle: saline with Tween-80) 100 % of control; (dose: 50.0 mg/kg/injection, schedule: Q01DX009 (sc), vehicle: saline with Tween-80) 102 % of control. In addition, the T/C was 97 % of control (dose: 100.0 mg/kg/injection, schedule: Q01DX009 (ip), vehicle: saline with Tween-80); 96 % of control and 97 % of control (dose: 100.0 mg/kg/injection, schedule: Q01DX009 (sc), vehicle: saline with Tween-80); 96 % of control (dose: 200.0 mg/kg/injection, schedule: Q01DX009 (ip), vehicle: saline with Tween-80); 106 % of control (dose: 200.0 mg/kg/injection, schedule: Q01DX009 (sc), vehicle: saline with Tween-80); 101 % of control (dose: 400.0 mg/kg/injection, schedule: Q01DX009 (sc), vehicle: saline with Tween-80).
Turning to `N#[N+]c1cnc([O-])[nH]c1=O`, the T/C is, setting by setting: (dose: 14.0 mg/kg/injection, schedule: Q01DX Z (sc), vehicle: methylcellulose (MC)) 100 % of control; (dose: 23.0 mg/kg/injection, schedule: Q01DX Z (sc), vehicle: methylcellulose (MC)) 100 % of control; (dose: 39.0 mg/kg/injection, schedule: Q01DX Z (sc), vehicle: methylcellulose (MC)) 122 % of control; (dose: 39.0 mg/kg/injection, schedule: Q01DX Z (sc), vehicle: other) 100 % of control; (dose: 65.0 mg/kg/injection, schedule: Q01DX Z (sc), vehicle: other) 116 % of control.
In the case of `S=c1nc[nH]c2nc[nH]c12.[Ag]`, the T/C reads like this: (dose: 100.0 mg/kg/injection, schedule: Q01DX Z (sc), vehicle: water) 100 % of control; (dose: 200.0 mg/kg/injection, schedule: Q01DX Z (sc), vehicle: water) 100 % of control; (dose: 400.0 mg/kg/injection, schedule: Q01DX Z (sc), vehicle: water) 100 % of control; (dose: 800.0 mg/kg/injection, schedule: Q01DX Z (sc), vehicle: water) 100 % of control; (dose: 1600.0 mg/kg/injection, schedule: Q01DX Z (sc), vehicle: water) 100 % of control.
Take `O=NNc1cnccn1`: the T/C (dose: 8.6 mg/kg/injection, schedule: Q01DX009 (ip), vehicle: water) was 96 % of control; the T/C (dose: 14.4 mg/kg/injection, schedule: Q01DX009 (ip), vehicle: water) was 104 % of control; the T/C (dose: 24.0 mg/kg/injection, schedule: Q01DX009 (ip), vehicle: water) was 100 % of control; the T/C (dose: 66.66 mg/kg/injection, schedule: Q01DX009 (ip), vehicle: water) was 95 % of control; the T/C (dose: 66.67 mg/kg/injection, schedule: Q01DX009 (ip), vehicle: water) was 120 % of control.
